Test results as given in PMC8163506, “A novel ATP dependent dimethylsulfoniopropionate lyase in bacteria that releases dimethyl sulfide and acryloyl-CoA” (eLife, 2021).

Biological target: T1, DddX (Psychrobacter sp., UniProt Z9QGV9JXN0)
T1 construct: full length (2247 bp gene), pET-22b, C-terminal His tag, E. coli BL21(DE3); dimer in solution
T1 sequence (Z9QGV9JXN0 1-748): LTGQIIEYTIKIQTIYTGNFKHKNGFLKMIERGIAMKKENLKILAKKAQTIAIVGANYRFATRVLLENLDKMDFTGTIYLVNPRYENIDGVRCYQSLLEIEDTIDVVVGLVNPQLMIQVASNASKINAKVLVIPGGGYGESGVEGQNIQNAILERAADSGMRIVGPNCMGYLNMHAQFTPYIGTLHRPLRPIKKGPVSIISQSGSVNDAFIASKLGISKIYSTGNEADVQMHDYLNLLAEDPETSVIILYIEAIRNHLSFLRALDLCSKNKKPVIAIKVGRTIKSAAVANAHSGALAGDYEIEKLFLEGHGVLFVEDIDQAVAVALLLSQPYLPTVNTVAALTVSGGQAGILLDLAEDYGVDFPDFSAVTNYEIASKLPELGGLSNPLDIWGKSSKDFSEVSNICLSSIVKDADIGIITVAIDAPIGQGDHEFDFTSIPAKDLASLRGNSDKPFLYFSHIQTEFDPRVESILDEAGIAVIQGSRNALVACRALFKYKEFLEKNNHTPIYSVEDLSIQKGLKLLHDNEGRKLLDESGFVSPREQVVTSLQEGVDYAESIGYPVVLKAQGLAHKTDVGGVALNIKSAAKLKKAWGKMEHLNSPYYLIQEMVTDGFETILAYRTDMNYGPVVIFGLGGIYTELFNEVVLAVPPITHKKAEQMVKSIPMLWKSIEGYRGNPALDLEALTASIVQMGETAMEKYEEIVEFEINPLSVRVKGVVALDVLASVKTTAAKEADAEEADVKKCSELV
Test: X-ray crystal structure of complex
Format: binding
Conditions: 1 mM ATP incubated with protein; ATP-grasp domain; crystals at pH 5.5, 18 °C

Nc1ncnc2c1ncn2[C@@H]1O[C@H](COP(=O)(O)OP(=O)(O)OP(=O)(O)O)[C@@H](O)[C@H]1O [ATP]
X-ray crystal structure of complex: we solved the crystal structure of DddX in complex with ATP
